Data as given in patent publication EP4806435A1, “DIHYDROCHROMENE-DERIVATIVE-CONTAINING THERAPEUTIC AGENT FOR CANCER” (Sumitomo Pharma Co., Ltd., priority 2023, dated 2025).
Where two headings read alike, the source gives them in different places.

Assay: Phase 1 clinical trial: plasma pharmacokinetics
Assay type: in vivo, human
Conditions: human, plasma, oral; for half-life: read-out: Effective T1/2 (converted); for AUC: tau = 24 hours
Method: Summary statistics based on preliminary data were obtained for the pharmacokinetics of Compound 1 in patients receiving once-daily doses ranging from 20 mg to 240 mg (Table 5). The mean plasma concentration-time curves of Compound 1 in the once-daily dose groups ranging from 20 mg to 240 mg are shown in Figure 11. In this study, one cycle consists of 28 days, and Cycle 1 Day 1 refers to Day 1 of the first cycle. […] Accumulation was observed after repeated administration. […] Based on these accumulation ratios, the half-life of Compound 1 was estimated to be approximately 4 days. Based on the currently available data, plasma concentrations are considered to have reached steady state by Day 15.
Summary statistics based on preliminary data were obtained for the pharmacokinetics of Compound 1 in patients in the 20 mg QD, 40 mg QD, 80 mg QD, 120 mg QD, 180 mg QD, 240 mg QD, 360 mg QD, and 480 mg daily (240 mg BID) dose groups (Table 6). The mean plasma concentration-time curves of Compound 1 in the 20 mg QD to 480 mg daily (240 mg BID) dose groups are shown in Figure 12 (in Figure 12, Compound 1 is denoted as "DSP-0390"). In this study, one cycle consists of 28 days, and Cycle 1 Day 1 refers to Day 1 of the first cycle. […] The median Tmax ranged from 2 to 8 hours. Accumulation was observed after repeated administration, and assuming linearity based on the observed accumulation ratios, the estimated elimination half-life was considered to be on the order of several days (approximately 1 to 6 days) (data cut-off: March 2024).

Molecule `CC1(C)Oc2cc(Cl)ccc2[C@@H]2OCC3(CCN(CCn4ccnc4)CC3)C[C@H]21` [Compound 1, (4'aR,10'bR)-8'-chloro-1-[2-(1H-imidazol-1-yl)ethyl]-5',5'-dimethyl-4'a,10'b-dihydro-2'H,4'H,5'H-spiro[piperidine-4,3'-pyrano[3,2-c][1]benzopyran] diphosphate] has a Cmax (80 mg, Cycle 2 Day 1, 80 mg, QD, cut-off April 2023, read-out: Cmax (median)) of 61 ng/mL, a Tmax (80 mg, Cycle 2 Day 1, 80 mg, QD, cut-off April 2023, read-out: Tmax (mean)) of 8 h and a Tmax (80 mg, Cycle 2 Day 1, 80 mg, QD, cut-off April 2023, read-out: Tmax (median)) of 8 h. The half-life (120 mg, 120 mg QD, cut-off March 2024) was 67.2 h, the Cmax (120 mg, Cycle 1, Day 1, 120 mg QD, cut-off March 2024, read-out: Cmax) was 44.2 ng/mL and the Tmax (120 mg, Cycle 1, Day 1, 120 mg QD, cut-off March 2024, read-out: Tmax [a] median value) was 4 h. The AUC (120 mg, Cycle 1, Day 1, 120 mg QD, cut-off March 2024, read-out: AUCtau [b]) was 577 ng·h/mL, the AUC(0-t) (120 mg, Cycle 1 Day 1, 120 mg, QD, cut-off April 2023, read-out: AUC0-24 (geometric mean)) was 544 ng·h/mL and the AUC(0-t) (120 mg, Cycle 1 Day 1, 120 mg, QD, cut-off April 2023, read-out: AUC0-24 (mean)) was 583 ng·h/mL. For the same molecule, the AUC(0-t) (120 mg, Cycle 1 Day 1, 120 mg, QD, cut-off April 2023, read-out: AUC0-24 (median)) was 605 ng·h/mL, the Cmax (120 mg, Cycle 1 Day 1, 120 mg, QD, cut-off April 2023, read-out: Cmax (geometric mean)) was 40 ng/mL and the Cmax (120 mg, Cycle 1 Day 1, 120 mg, QD, cut-off April 2023, read-out: Cmax (mean)) was 44 ng/mL. For the same molecule, the Cmax (120 mg, Cycle 1 Day 1, 120 mg, QD, cut-off April 2023, read-out: Cmax (median)) was 45 ng/mL, the Tmax (120 mg, Cycle 1 Day 1, 120 mg, QD, cut-off April 2023, read-out: Tmax (mean)) was 4 h and the Tmax (120 mg, Cycle 1 Day 1, 120 mg, QD, cut-off April 2023, read-out: Tmax (median)) was 4 h. The Cmax (120 mg, Cycle 2, Day 1, 120 mg QD, cut-off March 2024, read-out: Cmax,ss) was 156 ng/mL, the Tmax (120 mg, Cycle 2, Day 1, 120 mg QD, cut-off March 2024, read-out: Tmax,ss [a] median value) was 5 h and the AUC (120 mg, Cycle 2, Day 1, 120 mg QD, cut-off March 2024, read-out: AUCtau,ss [b]) was 2610 ng·h/mL. For the same molecule, the AUC(0-t) (120 mg, Cycle 2 Day 1, 120 mg, QD, cut-off April 2023, read-out: AUC0-24 (geometric mean)) was 2420 ng·h/mL, the AUC(0-t) (120 mg, Cycle 2 Day 1, 120 mg, QD, cut-off April 2023, read-out: AUC0-24 (mean)) was 2630 ng·h/mL and the AUC(0-t) (120 mg, Cycle 2 Day 1, 120 mg, QD, cut-off April 2023, read-out: AUC0-24 (median)) was 2330 ng·h/mL. The Cmax (120 mg, Cycle 2 Day 1, 120 mg, QD, cut-off April 2023, read-out: Cmax (geometric mean)) was 140 ng/mL, the Cmax (120 mg, Cycle 2 Day 1, 120 mg, QD, cut-off April 2023, read-out: Cmax (mean)) was 156 ng/mL and the Cmax (120 mg, Cycle 2 Day 1, 120 mg, QD, cut-off April 2023, read-out: Cmax (median)) was 138 ng/mL. For the same molecule, the Tmax (120 mg, Cycle 2 Day 1, 120 mg, QD, cut-off April 2023, read-out: Tmax (mean)) was 6 h, the Tmax (120 mg, Cycle 2 Day 1, 120 mg, QD, cut-off April 2023, read-out: Tmax (median)) was 5 h and the half-life (180 mg, 180 mg QD, cut-off March 2024) was 50.4 h. The Cmax (180 mg, Cycle 1, Day 1, 180 mg QD, cut-off March 2024, read-out: Cmax) was 114 ng/mL, the Tmax (180 mg, Cycle 1, Day 1, 180 mg QD, cut-off March 2024, read-out: Tmax [a] median value) was 6 h and the AUC (180 mg, Cycle 1, Day 1, 180 mg QD, cut-off March 2024, read-out: AUCtau [b]) was 1370 ng·h/mL. The AUC(0-t) (180 mg, Cycle 1 Day 1, 180 mg, QD, cut-off April 2023, read-out: AUC0-24 (geometric mean)) was 1060 ng·h/mL, the AUC(0-t) (180 mg, Cycle 1 Day 1, 180 mg, QD, cut-off April 2023, read-out: AUC0-24 (mean)) was 1420 ng·h/mL and the AUC(0-t) (180 mg, Cycle 1 Day 1, 180 mg, QD, cut-off April 2023, read-out: AUC0-24 (median)) was 1840 ng·h/mL. For the same molecule, the Cmax (180 mg, Cycle 1 Day 1, 180 mg, QD, cut-off April 2023, read-out: Cmax (geometric mean)) was 73 ng/mL, the Cmax (180 mg, Cycle 1 Day 1, 180 mg, QD, cut-off April 2023, read-out: Cmax (mean)) was 101 ng/mL and the Cmax (180 mg, Cycle 1 Day 1, 180 mg, QD, cut-off April 2023, read-out: Cmax (median)) was 140 ng/mL. For the same molecule, the Tmax (180 mg, Cycle 1 Day 1, 180 mg, QD, cut-off April 2023, read-out: Tmax (mean)) was 11 h, the Tmax (180 mg, Cycle 1 Day 1, 180 mg, QD, cut-off April 2023, read-out: Tmax (median)) was 6 h and the Cmax (180 mg, Cycle 2, Day 1, 180 mg QD, cut-off March 2024, read-out: Cmax,ss) was 215 ng/mL. The Tmax (180 mg, Cycle 2, Day 1, 180 mg QD, cut-off March 2024, read-out: Tmax,ss [a] median value) was 6 h, the AUC (180 mg, Cycle 2, Day 1, 180 mg QD, n=3, cut-off March 2024, read-out: AUCtau,ss [b]) was 4860 ng·h/mL and the AUC(0-t) (180 mg, Cycle 2 Day 1, 180 mg, QD, N=1, cut-off April 2023, read-out: AUC0-24 (geometric mean)) was 7260 ng·h/mL. For the same molecule, the AUC(0-t) (180 mg, Cycle 2 Day 1, 180 mg, QD, N=1, cut-off April 2023, read-out: AUC0-24 (mean)) was 7260 ng·h/mL, the AUC(0-t) (180 mg, Cycle 2 Day 1, 180 mg, QD, N=1, cut-off April 2023, read-out: AUC0-24 (median)) was 7260 ng·h/mL and the Cmax (180 mg, Cycle 2 Day 1, 180 mg, QD, cut-off April 2023, read-out: Cmax (geometric mean)) was 281 ng/mL. The Cmax (180 mg, Cycle 2 Day 1, 180 mg, QD, cut-off April 2023, read-out: Cmax (mean)) was 287 ng/mL, the Cmax (180 mg, Cycle 2 Day 1, 180 mg, QD, cut-off April 2023, read-out: Cmax (median)) was 287 ng/mL and the Tmax (180 mg, Cycle 2 Day 1, 180 mg, QD, cut-off April 2023, read-out: Tmax (mean)) was 7 h.
